Test results as given in ChEMBL document CHEMBL5500324, “The potential of marine-derived piperazine alkaloids: Sources, structures and bioactivities” (Eur J Med Chem, 2024).
Values after ≈ are worked out from the molar mass of the structure shown.

Assays:
[1] = test system: A549; experiment: Cytotoxicity against human A549 cells assessed as reduction in cell viability measured for 48 hrs by MTT assay; type: functional, cell-based; details: A549, 48 h
[2] = test system: HL-60; experiment: Cytotoxicity against human HL-60 cells assessed as reduction in cell viability by MTT assay; type: functional, cell-based
[3] = test system: MOLT-4; experiment: Cytotoxicity against human MOLT-4 cells assessed as reduction in cell viability by MTT assay; type: functional, cell-based
[4] = test system: Bel-7402; experiment: Cytotoxicity against human Bel-7402 cells assessed as reduction in cell viability measured for 48 hrs by MTT assay; type: functional, cell-based; details: Bel-7402, 48 h
[5] = test system: P388; experiment: Cytotoxicity against mouse P388 cells assessed as reduction in cell viability; type: functional; details: read-out: ED50 (the source's name)
[6] = test system: HT-29; experiment: Antiproliferative activity against human HT-29 cells assessed as reduction in cell viability incubated for 72 hrs by SRB assay; type: functional, cell-based; details: HT-29, 72 h
[7] = test system: MDA-MB-231; experiment: Antiproliferative activity against human MDA-MB-231 cells assessed as reduction in cell viability incubated for 72 hrs by SRB assay; type: functional, cell-based; details: MDA-MB-231, 72 h
[8] = test system: A549; experiment: Antiproliferative activity against human A549 cells assessed as reduction in cell viability incubated for 72 hrs by SRB assay; type: functional, cell-based; details: A549, 72 h
[9] = test system: P388; experiment: Cytotoxicity against mouse P388 cells; type: functional; details: read-out: ED50 (the source's name)
[10] = test system: MCF7; experiment: Cytotoxicity against human MCF7 cells assessed as reduction in cell growth incubated for 48 hrs by SRB assay; type: functional, cell-based; details: MCF7, 48 h
[11] = test system: SF-268; experiment: Cytotoxicity against human SF-268 cells assessed as reduction in cell growth incubated for 48 hrs by SRB assay; type: functional, cell-based; details: SF-268, 48 h
[12] = test system: HepG2; experiment: Cytotoxicity against human HepG2 cells assessed as reduction in cell growth incubated for 48 hrs by SRB assay; type: functional, cell-based; details: HepG2, 48 h
[13] = test system: NCI-H460; experiment: Cytotoxicity against human NCI-H460 cells assessed as reduction in cell growth incubated for 48 hrs by SRB assay; type: functional, cell-based; details: NCI-H460, 48 h
[14] = test system: A549; experiment: Cytotoxicity against human A549 cells assessed as inhibition of cell growth; type: functional, cell-based
[15] = test system: P388; experiment: Cytotoxicity against mouse P388 cells assessed as inhibition of cell growth; type: functional, cell-based
[16] = test system: HT-29; experiment: Cytotoxicity against human HT-29 cells assessed as inhibition of cell growth; type: functional, cell-based
[17] = test system: SK-MEL-28; experiment: Cytotoxicity against human SK-MEL-28 cells assessed as inhibition of cell growth; type: functional, cell-based
[18] = test system: QG-56; experiment: Cytotoxicity against human QG-56 cells assessed as reduction in cell growth incubated for 24 hrs by MTT assay; type: functional, cell-based; details: QG-56, 24 h
[19] = test system: HCT-116; experiment: Antiproliferative activity against human HCT-116 cells assessed as reduction in cell viability incubated for 24 hrs by MTT assay; type: functional, cell-based; details: HCT-116, 24 h
[20] = test system: DU-145; experiment: Cytotoxicity against human DU-145 cells assessed as cell growth inhibition measured after 48 hrs by MTT assay; type: functional, cell-based; details: DU-145, 48 h

C=C(C)[C@H](O)Cn1c2c(c3ccc(OC)cc31)[C@H](O)[C@@]1(O)C(=O)N3CCC[C@H]3C(=O)N1[C@H]2C=C(C)C
IC50 [1]: 11.6 µM
IC50 [2]: 5.4 µM
IC50 [3]: 11 µM
IC50 [4]: 10.8 µM

CC(C)[C@]12SSS[C@]3(C(=O)N1C)[C@@H](O)C1(c4c[nH]c5ccccc45)c4ccccc4N[C@@H]1N3C2=O (some centres not stated)
EC50 [5]: 46 ng/mL (≈ 87.7 nM)

CN1C[C@@H](c2c[nH]c3cc(Br)ccc23)NC[C@@H]1c1c[nH]c2ccccc12
IC50 [6]: 3.3 µM
IC50 [7]: 4.7 µM
IC50 [8]: 2.7 µM

CS[C@@]1(C(C)C)C(=O)N2C(=CC3(C45c6ccccc6N[C@H]4N4C(=O)[C@H](CO)N(C)C(=O)[C@@]4(O)[C@H]5O)c4ccccc4N[C@H]23)C(=O)N1C (some centres not stated)
EC50 [9]: 14800 ng/mL (≈ 22400 nM)

CC(C)[C@]12SSS[C@]3(C(=O)N1C)[C@@H](O)C1(C45c6ccccc6N[C@H]4N4C(=O)[C@@]6(CO)SSS[C@]4(C(=O)N6C)[C@H]5O)c4ccccc4N[C@@H]1N3C2=O (some centres not stated)
EC50 [9]: 4.3 ng/mL (≈ 5.34 nM)

CN1C[C@@H](c2c[nH]c3cc(Br)ccc23)N(C)C[C@@H]1c1c[nH]c2cc(Br)ccc12
IC50 [6]: 19.3 µM
IC50 [7]: 28 µM
IC50 [8]: 20.3 µM

CS[C@]1(CO)C(=O)n2c(cc3ccccc32)C(=O)N1C
IC50 [10]: 29.5 µM
IC50 [11]: 35.7 µM
IC50 [12]: 28.9 µM
IC50 [13]: > 100 µM

CC(C)[C@]12SS[C@]3(C(=O)N1C)[C@@H](O)C1(c4c[nH]c5ccccc45)c4ccccc4N[C@@H]1N3C2=O (some centres not stated)
EC50 [5]: 86 ng/mL (≈ 175 nM)

C=C(C)[C@@H](O)Cn1c2c(c3ccc(OC)cc31)[C@H](O)[C@@]1(O)C(=O)N3CCC[C@H]3C(=O)N1[C@H]2C=C(C)C
IC50 [1]: 11 µM
IC50 [2]: 3.4 µM
IC50 [3]: 11 µM
IC50 [4]: 7 µM

CSS[C@]1(C(C)C)C(=O)N2C(=CC3(C45c6ccccc6N[C@H]4N4C(=O)[C@H](CO)N(C)C(=O)[C@@]4(O)[C@H]5O)c4ccccc4N[C@H]23)C(=O)N1C (some centres not stated)
EC50 [9]: 100 ng/mL (≈ 144 nM)

COc1ccc2c(c1)N(CC=C(C)C)C(=O)[C@]21[C@H](C=C(C)C)N2C(=O)[C@]3(O)CCCN3C(=O)[C@]2(O)[C@H]1O
IC50 [1]: 35.5 µM
IC50 [2]: 45 µM
IC50 [3]: 25.7 µM
IC50 [4]: 17.5 µM

CC(C)[C@]12SSSS[C@]3(C(=O)N1C)[C@@H](O)C1(c4c[nH]c5ccccc45)c4ccccc4N[C@@H]1N3C2=O (some centres not stated)
EC50 [5]: 56 ng/mL (≈ 101 nM)

CC(C)[C@]12SSS[C@]3(C(=O)N1C)[C@@H](O)C1(C45c6ccccc6N[C@H]4N4C(=O)[C@@]6(C(C)C)SS[C@]4(C(=O)N6C)[C@H]5O)c4ccccc4N[C@@H]1N3C2=O (some centres not stated)
EC50 [9]: 2.2 ng/mL (≈ 2.8 nM)

CC(C)[C@]12SS[C@]3(C(=O)N1C)[C@@H](O)C1(C45c6ccccc6N[C@H]4N4C(=O)[C@@]6(CO)SSSS[C@]4(C(=O)N6C)[C@H]5O)c4ccccc4N[C@@H]1N3C2=O (some centres not stated)
EC50 [5]: 1.85 ng/mL (≈ 2.3 nM)

COc1c(C)cc2c(c1O)[C@H]1[C@@H]3[C@@H]4SC[C@H](N)C(=O)OC[C@@H](c5c(O)c(OC)c(C)c(OC(C)=O)c54)N3[C@@H](O)[C@@H](C2)N1C
IC50 [14]: 2 ng/mL (≈ 3.25 nM)
IC50 [15]: 2 µM
IC50 [16]: 2 ng/mL (≈ 3.25 nM)
IC50 [17]: 2 ng/mL (≈ 3.25 nM)

COC1=C(C)C(=O)C2=C(C1=O)[C@H](CO)N1[C@@H](C#N)[C@@H]3[C@@H](O)c4c(O)c(C)c(OC)c(O)c4[C@H]([C@@H]1C2)N3C
IC50 [18]: 0.618 µM
IC50 [19]: 0.455 µM
IC50 [20]: 0.448 µM

CC(C)[C@]12SSS[C@]3(C(=O)N1C)[C@@H](O)C1(C45c6ccccc6N[C@H]4N4C(=O)[C@@]6(CO)SS[C@]4(C(=O)N6C)[C@H]5O)c4ccccc4N[C@@H]1N3C2=O (some centres not stated)
EC50 [9]: 4.4 ng/mL (≈ 5.69 nM)

CO[C@@]12C(=O)N(C)[C@@H](C(C)C)C(=O)N1[C@@H]1Nc3ccccc3C1(C13c4ccccc4N[C@@H]1N1C(=O)[C@@]4(C(C)C)SSS[C@]1(C(=O)N4C)[C@@H]3O)[C@H]2O (some centres not stated)
EC50 [9]: 190 ng/mL (≈ 252 nM)

CC(C)[C@]12SSSS[C@]3(C(=O)N1C)[C@@H](O)C1(C45c6ccccc6N[C@H]4N4C(=O)[C@@]6(CO)SS[C@]4(C(=O)N6C)[C@H]5O)c4ccccc4N[C@@H]1N3C2=O (some centres not stated)
EC50 [9]: 3 ng/mL (≈ 3.73 nM)

C/C=C(/C)C(=O)OC[C@H]1C2=C(C[C@H]3[C@H]4C5=C(C[C@@H]([C@H](C#N)N13)N4C)C(=O)C(C)=C(OC)C5=O)C(=O)C(C)=C(OC)C2=O [RENIERAMYCIN M]
IC50 [18]: 0.00076 µM
IC50 [20]: 0.019 µM
